In patent publication US11058756B2, “Compositions and methods of treating autoimmune disease by reducing enterococcus” (YALE UNIVERSITY, priority 2017, dated 2021):

What was measured:
(NZWxBXSB)F1 mice = experiment: Serum ELISAs for anti-dsDNA, anti-RNA, anti-β2GPI IgG, ERV gp70 protein and anti-ERV gp70 immune complexes; type: in vivo, mouse
Text: (§1) Mice were cohoused for 3 to 4 weeks before antibiotic treatment to allow for equilibration of the microbiota. Single antibiotic or broad-spectrum antibiotic administration consisted of metronidazole (1 g/liter; Fisher Scientific), neomycin (1 g/liter; Fisher Scientific), ampicillin (1 g/liter; Sigma) and vancomycin (0.5 g/liter; Acros Organics) in the drinking water for up to 22 weeks or a targeted regiment for 2 weeks and then replaced with regular water for the duration of the experiment. For broad-spectrum antibiotic experiments (vancomycin, ampicillin, metronidazole, and neomycin combined), sweetener (Equal, 4 g/L) was added to both the antibiotics and control water due to the metallic taste of metronidazole. Twenty-four hours after cessation of antibiotic water, mice were administered 1×10^6 CFUs of vancomycin-resistant E. gallinarum via oral gavage, isolated from liver tissue of a vancomycin-treated mouse that continued to show signs of autoimmune disease (high-level resistance was confirmed by vanC gene PCR). E. gallinarum was grown at 37° C. in Gifu Anaerobic Broth (HIMEDIA Laboratories) to early stationary phase under anaerobic conditions (82% N2, 15% CO2, 3% H2 by volume) in an anaerobic chamber and diluted in PBS to 10^7 CFUs.
Serum antibodies specific for dsDNA and b2GPI were determined using standardized ELISAs (anti-dsDNA antibody, Abcam; and, Mouse/Rat Apolipoprotein H Antibody, R&D Systems; respectively). Anti-RNA was determined by ELISA using defined positive controls (Human/Mouse RNA Polymerase II Antibody, R&D systems). Anti-ERV gp70 ICs and ERV gp70 protein were determined by OD450 signal comparisons (Evans et al., 1990, J Virol, 64, 6176-6183). For anti-dsDNA ELISAs, DNA-BIND™ (Corning) plates were coated with 100 μg/ml salmon sperm DNA (Fisher Scientific) and blocked in 0.1M PBS, 3.0% BSA, 5.0% FBS. The serum was diluted 1:1000 for the assay and incubated for 1 hour at 37° C. Wells were washed and incubated for 1 hour at 37° C. with rabbit anti-mouse IgG (Fisher Scientific) conjugated to HRP and developed with TMB substrate solution. 2M sulfuric acid (Sigma) solution was used to stop development. The concentration of anti-dsDNA was determined by reading the absorbance at 450 nm/570 nm reference.
For anti-RNA ELISAs, DNA-BIND™ (Corning) plates were coated with […] yeast RNA (Ambion) and blocked in 0.1M PBS, 0.05% Tween-20, 5.0% FBS. The serum was diluted 1:1000 for the assay and incubated for 1 hour at 37° C. Wells were washed and incubated for 1 hour at 37° C. with rabbit anti-mouse IgG (Fisher Scientific) conjugated to HRP and developed with TMB substrate solution. 2M sulfuric acid (Sigma) solution was used to stop development. The concentration of anti-RNA IgG was determined by reading the absorbance at 450 nm/570 nm reference.
For anti-b2GPI ELISAs, Corning® 96-well EIA/RIA easy Wash™ clear flat-bottom polystyrene high-bind microplates were coated with […] recombinant b2GPI/ApoH (R&D Systems) and blocked in Pierce Protein-Free (PBS) Blocking Buffer (Thermo Scientific). The serum was diluted 1:100 for the assay and incubated at room temperature for 2 hours on a shaker. Wells were washed and incubated while shaking for 30 minutes at room temperature with goat anti-mouse IgG (Fisher Scientific) conjugated to HRP and developed with TMB substrate solution. 2M sulfuric acid (Sigma) solution was used to stop development. The concentration of anti-b2GPI was determined by reading the absorbance at 450 nm/650 nm reference. […]

ERV gp70 = experiment: Liver ERV gp70 expression by RT-qPCR after oral antibiotics; type: in vivo, mouse; settings: oral vancomycin; FIG. 7
Text: as §1, with “E. gallinarum was grown at 37° C. in Gifu Anaerobic Broth (HIMEDIA Laboratories) to early stationary phase under anaerobic conditions (82% N2, 15% CO2, 3% H2 by volume) in an anaerobic chamber and diluted in PBS to 10^7 CFUs.” left out
RNA was isolated from hepatocytes, dendritic cells or ileum using the RNAeasy plus mini kit (Qiagen) according to the manufacturer's instructions. cDNA was generated using the QuantiTect Reverse Transcription Kit (Qiagen). […]

CN[C@H](CC(C)C)C(=O)N[C@H]1C(=O)N[C@@H](CC(N)=O)C(=O)N[C@H]2C(=O)N[C@H]3C(=O)N[C@H](C(=O)N[C@H](C(=O)O)c4cc(O)cc(O)c4-c4cc3ccc4O)[C@H](O)c3ccc(c(Cl)c3)Oc3cc2cc(c3O[C@@H]2O[C@H](CO)[C@@H](O)[C@H](O)[C@H]2O[C@H]2C[C@](C)(N)[C@H](O)[C@H](C)O2)Oc2ccc(cc2Cl)[C@H]1O [vancomycin]
lupus-related autoantibodies (serum anti-dsDNA and anti-RNA IgG) ((NZWxBXSB)F1 mice; single antibiotic in drinking water, 16 weeks of age, FIG. 1B-1C): prevented
anti-β2GPI ((NZWxBXSB)F1 mice; vancomycin 0.5 g/L in drinking water from 6 weeks of age, FIG. 7): suppressed
serum ERV gp70 ((NZWxBXSB)F1 mice; vancomycin 0.5 g/L in drinking water from 6 weeks of age, FIG. 7K): suppressed
anti-ERV gp70 immune complexes (ICs) ((NZWxBXSB)F1 mice; vancomycin 0.5 g/L in drinking water from 6 weeks of age, FIG. 7L): suppressed
hepatic ERV gp70 (ERV gp70): suppressed
